Experimental data: PubChem BioAssay AID1645862 (Buhrlage Lab, Dana-Farber Cancer Institute and Novartis …, 2021)
Activity calls are given as the source filed them. How the calls were made is not given here.

Target: Ubiquitin carboxyl-terminal hydrolase 8 (Homo sapiens) (UniProt P40818)
Assay: Ubiquitin-specific protease 8 inhibitors, concentration-effect, biochemical, validation of initial actives (AID 1645862);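 further: potency reflects inhibition of USP8 cleavage of a ubiquitin rhodamine substrate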
Settings: recombinant USP8 deubiquitinase activity assay

Ubiquitin carboxyl-terminal hydrolase 8 (Homo sapiens), sequence (P40818 whole entry, looked up): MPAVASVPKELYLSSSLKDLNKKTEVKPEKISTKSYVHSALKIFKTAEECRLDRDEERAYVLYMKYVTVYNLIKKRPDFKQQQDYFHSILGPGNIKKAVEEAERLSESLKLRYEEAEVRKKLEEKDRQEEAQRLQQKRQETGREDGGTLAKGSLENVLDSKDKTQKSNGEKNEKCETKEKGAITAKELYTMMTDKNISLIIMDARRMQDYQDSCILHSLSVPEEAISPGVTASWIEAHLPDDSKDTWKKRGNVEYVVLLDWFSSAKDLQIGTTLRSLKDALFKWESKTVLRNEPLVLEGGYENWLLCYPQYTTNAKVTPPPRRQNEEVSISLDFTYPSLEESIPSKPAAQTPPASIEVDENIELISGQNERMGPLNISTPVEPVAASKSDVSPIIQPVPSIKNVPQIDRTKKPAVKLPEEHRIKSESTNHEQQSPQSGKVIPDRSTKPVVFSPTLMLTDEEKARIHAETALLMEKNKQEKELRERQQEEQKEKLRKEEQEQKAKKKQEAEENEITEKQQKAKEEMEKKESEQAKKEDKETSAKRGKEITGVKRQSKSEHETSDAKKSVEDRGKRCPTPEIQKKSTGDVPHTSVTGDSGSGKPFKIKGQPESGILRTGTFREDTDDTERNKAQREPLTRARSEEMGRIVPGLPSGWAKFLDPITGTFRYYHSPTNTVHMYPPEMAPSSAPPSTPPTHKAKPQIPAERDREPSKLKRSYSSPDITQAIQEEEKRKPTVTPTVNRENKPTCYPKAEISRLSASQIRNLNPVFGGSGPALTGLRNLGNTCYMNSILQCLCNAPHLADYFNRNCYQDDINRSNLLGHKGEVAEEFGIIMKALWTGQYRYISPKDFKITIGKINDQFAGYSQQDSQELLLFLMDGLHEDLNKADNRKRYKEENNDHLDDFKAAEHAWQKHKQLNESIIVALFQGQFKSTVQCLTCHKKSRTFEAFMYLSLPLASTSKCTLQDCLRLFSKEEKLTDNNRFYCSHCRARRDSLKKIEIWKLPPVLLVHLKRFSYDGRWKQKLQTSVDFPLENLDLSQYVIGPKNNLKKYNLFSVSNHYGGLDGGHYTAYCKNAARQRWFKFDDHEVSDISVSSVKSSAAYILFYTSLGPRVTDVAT

COC(=O)c1ccccc1NC(=O)CSc1nnc(CNc2ccc(F)cc2)n1CC1CCCO1 (centres undefined)
IC50: > 40 µM (inactive)

O=c1[nH]c2ccc(S(=O)(=O)Nc3ccc(O)c4ccccc34)cc2[nH]1
IC50: 11.2 µM

O=C(COc1nc2ccccc2nc1N1CCOCC1)NC(c1ccccc1)c1ccccc1
IC50: > 40 µM (inactive)

O=C(Cn1cc(C(=O)c2ccccc2)c(=O)c2cc(F)ccc21)Nc1ccc2c(c1)OCO2
IC50: > 40 µM (inactive)

COc1ccc(C2NC(=O)NC(C)=C2C(=O)OCC2CCCCC2)cc1OC (centres undefined)
IC50: > 40 µM (inactive)

Cc1cccc(-c2nnn3c2nc(NCC2CCCO2)c2ccccc23)c1 (centres undefined)
IC50: > 40 µM (inactive)

O=C(NCCN1CCOCC1)c1cn2cc(Cl)ccc2n1
IC50: > 40 µM (inactive)

CCOC(=O)N1CCN(C(=O)c2ccc(CS(=O)c3ccccc3Cl)o2)CC1 (centres undefined)
IC50: > 40 µM (inactive)

O=C(Cn1cnc(-c2noc(-c3ccc(F)cc3)n2)c1)Nc1ccccc1F
IC50: > 40 µM (inactive)

COc1ccc(NC(=O)c2[nH]nc3c2COc2ccccc2-3)c(OC)c1
IC50: > 40 µM (inactive)

CCn1cc2c(n1)c(=O)n(Cc1ccccc1)c(=O)n2CC(=O)Nc1ccc(C)cc1C
IC50: 24.4 µM

Cc1sc2ccn(C)c(=O)c2c1C(=O)NC1CCCC1
IC50: 2.18 µM

Cc1nc2c(nnn2C[C@H]2CCCN2C(=O)c2ccc(F)cc2)c(=O)[nH]1
IC50: > 40 µM (inactive)

O=C(O)c1ccccc1C(=O)Nc1ccc(SC(C(=O)Nc2ccccc2Cl)c2ccccc2)cc1 (centres undefined)
IC50: > 40 µM (inactive)

CCc1ccc(NC(=O)c2cc(C(F)(F)F)n(C)n2)cc1
IC50: > 40 µM (inactive)

Cc1cccc(NC(=O)CNC(=O)c2ccc(-c3noc(C4CCCC4)n3)cc2)c1C
IC50: > 40 µM (inactive)

CCOC(=O)C1CCN(C(=O)c2ccc3c(c2)NC(=O)C2CCCN32)CC1 (centres undefined)
IC50: 2.02 µM

O=C(Cn1cc(C(=O)c2ccc(F)cc2)c(=O)c2ccccc21)Nc1ccc2c(c1)OCO2
IC50: > 40 µM (inactive)

Cc1ccc(CNC(=O)CCCn2c(=O)c3sccc3n(CC(=O)Nc3cc(Cl)ccc3C)c2=O)cc1
IC50: > 40 µM (inactive)

COc1ccc(CCNC(=O)CSc2cn(CCNC(=O)c3ccccc3C)c3ccccc23)cc1OC
IC50: > 40 µM (inactive)

Cc1ccc(C(=O)NCc2ccc(C(=O)Nc3ccc(Cl)cc3)o2)cc1
IC50: > 40 µM (inactive)

Cc1ccc2cc(CNc3ccccc3)c(=O)n(CC(=O)Nc3ccccc3C)c2c1
IC50: > 40 µM (inactive)

CCOc1ccc(NC(=O)Cn2c(=O)n(CCCCCC(=O)NCc3ccc(F)cc3)c(=O)c3sccc32)cc1
IC50: > 40 µM (inactive)

CCCCOc1ccc(C(=O)n2ccn(S(=O)(=O)c3ccc(C)cc3)c2=O)cc1
IC50: > 40 µM (inactive)

Cc1cccc(C)c1NC(=O)CN1C(=O)CC(c2ccccc2)=Nc2ccccc21
IC50: > 40 µM (inactive)

Cc1cccc(NC(=O)c2noc3c2CCc2sccc2-3)n1
IC50: > 40 µM (inactive)

O=C(CCn1c(=O)c2ccccc2n(Cc2ccc(F)cc2Cl)c1=O)NCc1ccco1
IC50: > 40 µM (inactive)

COc1cc(Cn2cnc3c([nH]c4ccc(Br)cc43)c2=O)cc(OC)c1
IC50: > 40 µM (inactive)

CCOc1cccc(-c2noc(-c3nn(-c4ccccc4)ccc3=O)n2)c1
IC50: > 40 µM (inactive)

Fc1cc(F)c2[nH]cc(-c3nnnn3-c3ccc4ccccc4c3)c2c1
IC50: > 40 µM (inactive)

COc1cccc(NC(=O)C(Sc2cccc(NC(=O)c3ccccc3F)c2)c2ccccc2)c1 (centres undefined)
IC50: > 40 µM (inactive)

NC(=O)c1ccccc1NC(=O)COc1ccc2c(c1)oc(=O)c1ccccc12
IC50: 32.6 µM

O=C(Cn1c(CNC(=O)c2ccccc2)nc2ccccc21)Nc1ccc(F)cc1
IC50: > 40 µM (inactive)

COc1ccc(NC(=O)Cn2c(=O)n(CCCC(=O)NCCc3ccc(OC)c(OC)c3)c(=O)c3ccccc32)cc1Cl
IC50: > 40 µM (inactive)

COc1ccc(CCC(=O)Nc2nnc(C3CC(=O)N(c4ccccc4)C3)s2)cc1 (centres undefined)
IC50: > 40 µM (inactive)

COc1ccccc1Nc1ncc(C(=O)NCCc2ccc(Cl)cc2)c2ccccc12
IC50: > 40 µM (inactive)

O=S1(=O)CCN(Cc2c(F)cccc2F)c2c(F)nc(N3CCOCC3)c(F)c21
IC50: > 40 µM (inactive)

COc1cc(C2CC(=O)c3c([nH]c(C(=O)OCCOc4ccccc4)c3C)C2)cc(OC)c1OC (centres undefined)
IC50: > 40 µM (inactive)

COc1ccc(Nc2nnc(Cc3ccc(Cl)cc3)c(=O)[nH]2)cc1
IC50: 29.2 µM

COc1ccccc1CN1CCC(c2cc(=O)[nH]c(-c3cccnc3)n2)CC1
IC50: > 40 µM (inactive)

Cn1c(C(=O)NCc2ccccn2)cc2c(=O)[nH]c3ccccc3c21
IC50: > 40 µM (inactive)

Cc1ccc(NC(=O)Nc2nnc(CC(=O)NCc3ccccc3)s2)cc1F
IC50: > 40 µM (inactive)

COc1cccc(-n2cnc3cc(C(=O)NCCc4ccccc4)ccc3c2=O)c1
IC50: > 40 µM (inactive)

O=C(Nc1ccc(-c2nc3ccccc3o2)cc1)c1ccc(S(=O)(=O)N2CCc3ccccc3C2)cc1
IC50: > 40 µM (inactive)

COc1ccc(NC(=O)Cn2c(=O)n(CCCC(=O)NC3CCCC3)c(=O)c3cc(Cl)ccc32)c(OC)c1
IC50: > 40 µM (inactive)

CN1CC(c2ncn[nH]2)c2cc(C(=O)NCc3cccc(F)c3)ccc21 (centres undefined)
IC50: > 40 µM (inactive)

O=C(COc1ccc(N2CC(C(=O)NCc3ccccc3)CC2=O)cc1)Nc1ccc(F)cc1 (centres undefined)
IC50: > 40 µM (inactive)

COc1c(C)c(OC(=O)c2c(C)c(C)c(OC(=O)c3c(C)c(C)c(O)c(C)c3O)c(C)c2OC)c(C)c(C)c1C(=O)O
IC50: > 40 µM (inactive)

CC(C)=CCc1c(O)cc2c(c1C)OC(=O)c1c(C)c(Cl)c(O)c(CO)c1O2
IC50: > 40 µM (inactive)

O=C(NC1(O)C(=O)c2ccccc2C1=O)c1ccc(-c2csnn2)cc1
IC50: 5.57 µM

COc1ccc(NC(=O)c2nnc(C(=O)NCc3ccccc3F)s2)cc1
IC50: > 40 µM (inactive)

Cc1ccc(N2CC(c3nnc(NC(=O)CCc4ccccc4)s3)CC2=O)cc1 (centres undefined)
IC50: > 40 µM (inactive)

Cc1ccc(CNC(=O)c2ccc3nn(CC(=O)Nc4ccccc4F)c(=O)n3c2)cc1
IC50: > 40 µM (inactive)

COc1ccc(NS(=O)(=O)c2cc(NC(=O)CC(=O)c3ccc([N+](=O)[O-])cc3)ccc2C)cc1
IC50: > 40 µM (inactive)

COc1ccc2c(c1)CCc1c-2nc2ccccc2c1N1CCOCC1
IC50: > 40 µM (inactive)

COc1ccc(NC(=O)CC(=O)c2ccc([N+](=O)[O-])cc2)cc1S(=O)(=O)Nc1ccc(Cl)cc1
IC50: > 40 µM (inactive)

Cc1ccc(-c2nn(C(C)(C)C)c3ncnc(NS(=O)(=O)c4ccc(Cl)cc4)c23)cc1
IC50: > 40 µM (inactive)

COCCCNC(=O)c1ccc(Cn2c(=O)c3ccccc3n(CC(=O)Nc3ccc4c(c3)OCCO4)c2=O)cc1
IC50: > 40 µM (inactive)

COc1ccc(-n2c(=O)c3ccc(C(=O)NCCc4ccccc4)cc3n(CC(=O)NCCC3=CCCCC3)c2=O)cc1
IC50: > 40 µM (inactive)

Cc1c(-c2nc(-c3ccccc3Cl)no2)nnn1-c1cccc(F)c1
IC50: > 40 µM (inactive)

CCc1cccc(C)c1NC(=O)Cn1nc2ccc(C(=O)NCc3ccccc3)cn2c1=O
IC50: > 40 µM (inactive)

CS(=O)(=O)c1ccc2nc(N(Cc3cccnc3)C(=O)c3ccc4ccccc4c3)sc2c1
IC50: > 40 µM (inactive)

N#Cc1cccc(NC(=O)c2[nH]nc3c2COc2ccccc2-3)c1
IC50: 38.3 µM

Cc1cccc(NC(=O)CCCc2nnc3c(=O)n(-c4cccc(F)c4)ccn23)c1
IC50: > 40 µM (inactive)

Cc1ccc(C2=Nc3ccccc3N(CC(=O)Nc3cccc(C)c3C)C(=O)C2)cc1C
IC50: > 40 µM (inactive)

O=C(Nc1ccccc1-c1nc2ccccc2[nH]1)c1sc2ccccc2c1Cl
IC50: 10.5 µM

O=C(CCCn1c(=O)c2cc(Cl)ccc2n(CC(=O)Nc2cccc(F)c2)c1=O)NCc1ccco1
IC50: > 40 µM (inactive)

CC(OC(=O)c1cc(S(=O)(=O)Nc2ccccc2F)ccc1Cl)C(=O)Nc1ccc([N+](=O)[O-])cc1C(F)(F)F (centres undefined)
IC50: > 40 µM (inactive)

CC(NC(=O)c1ccccc1)c1nc2ccccc2n1CC(=O)Nc1ccc2c(c1)OCO2 (centres undefined)
IC50: > 40 µM (inactive)

O=C(CSc1nc2ccccc2[nH]1)Nc1cccc2c1OCCO2
IC50: > 40 µM (inactive)

CCCCCCCCCCCCCCCc1cc(O)cc(O)c1C(=O)O
IC50: 30.9 µM

Cn1cc(-c2nc(C(=O)Nc3ccc(C#N)cc3)cs2)c2cccnc21
IC50: > 40 µM (inactive)

Cc1cc(NC(=O)CN2CCCN(S(=O)(=O)c3ccc(F)cc3)CC2)ccc1Br
IC50: > 40 µM (inactive)

Cc1ccc(NC(=O)Cn2cncc(-c3nc(-c4ccccc4)cs3)c2=O)cc1F
IC50: > 40 µM (inactive)

COCCCn1c(C(=O)NCc2ccccc2)cc2c(=O)n3ccccc3nc21
IC50: > 40 µM (inactive)

CCOC(=O)c1ccc(NC(=O)Cn2c(=O)n(CC(=O)NCc3ccco3)c(=O)c3ccccc32)cc1
IC50: > 40 µM (inactive)

Cc1ccc(-c2cc(C(F)F)n3ncc(C(=O)Nc4ccc(O)cc4)c3n2)cc1
IC50: > 40 µM (inactive)

Cc1cccc(NC(=O)CSc2nnc(-c3n[nH]c4c3CCC4)n2N)c1C
IC50: > 40 µM (inactive)

CC(=O)c1ccc(NC(=O)CSc2nc(-c3ccccc3)nc3c2COC(C)(C)C3)cc1
IC50: > 40 µM (inactive)

O=C(COC(=O)C(Cc1c[nH]c2ccccc12)NC(=O)c1ccccc1Cl)Nc1ccc([N+](=O)[O-])cc1C(F)(F)F (centres undefined)
IC50: > 40 µM (inactive)

Cc1cccc(OCCn2c(CCNC(=O)C3CCCCC3)nc3ccccc32)c1
IC50: > 40 µM (inactive)

COc1cc(CC(=O)Nc2ccccc2N2CCOCC2)cc(OC)c1OC
IC50: > 40 µM (inactive)

Cc1noc(/C=C/Nc2cc(Cl)cc(Cl)c2)c1[N+](=O)[O-]
IC50: > 40 µM (inactive)

O=C(/C=C/c1ccco1)N1CCC(Cn2cccn2)CC1
IC50: > 40 µM (inactive)

Cc1ccc(C)c(S(=O)(=O)N2CCN(c3ccc4nnc(-c5ccco5)n4n3)CC2)c1
IC50: > 40 µM (inactive)

O=C(Cn1c(=O)c2ccccc2n(CC(=O)Nc2cccc(F)c2)c1=O)NCCc1ccccc1
IC50: > 40 µM (inactive)

O=C(COc1ccc(Cl)cc1)Nc1noc(-c2ccccc2)n1
IC50: 39.3 µM

CCN(Cc1ccccc1)C(=O)C1CCN(Cc2ccc(OC)c(OC)c2OC)CC1
IC50: > 40 µM (inactive)

Cc1cccc(NC(=O)Cn2c(=O)n(-c3cc(C)cc(C)c3)c(=O)c3sccc32)c1
IC50: > 40 µM (inactive)
